Experimental data from patent publication US5962314A, “Calcium receptor-active molecules” (priority 1997, dated 1999).
Entries after “also recorded” stand apart in the source; their conditions may differ. No end group written: not given here.

Legend:
[1] = molecular target: T1, parathyroid cell calcium receptor (Bos taurus, UniProt P35384); assay: cell-based; type: cell-based
T1 sequence (P35384 20-1085): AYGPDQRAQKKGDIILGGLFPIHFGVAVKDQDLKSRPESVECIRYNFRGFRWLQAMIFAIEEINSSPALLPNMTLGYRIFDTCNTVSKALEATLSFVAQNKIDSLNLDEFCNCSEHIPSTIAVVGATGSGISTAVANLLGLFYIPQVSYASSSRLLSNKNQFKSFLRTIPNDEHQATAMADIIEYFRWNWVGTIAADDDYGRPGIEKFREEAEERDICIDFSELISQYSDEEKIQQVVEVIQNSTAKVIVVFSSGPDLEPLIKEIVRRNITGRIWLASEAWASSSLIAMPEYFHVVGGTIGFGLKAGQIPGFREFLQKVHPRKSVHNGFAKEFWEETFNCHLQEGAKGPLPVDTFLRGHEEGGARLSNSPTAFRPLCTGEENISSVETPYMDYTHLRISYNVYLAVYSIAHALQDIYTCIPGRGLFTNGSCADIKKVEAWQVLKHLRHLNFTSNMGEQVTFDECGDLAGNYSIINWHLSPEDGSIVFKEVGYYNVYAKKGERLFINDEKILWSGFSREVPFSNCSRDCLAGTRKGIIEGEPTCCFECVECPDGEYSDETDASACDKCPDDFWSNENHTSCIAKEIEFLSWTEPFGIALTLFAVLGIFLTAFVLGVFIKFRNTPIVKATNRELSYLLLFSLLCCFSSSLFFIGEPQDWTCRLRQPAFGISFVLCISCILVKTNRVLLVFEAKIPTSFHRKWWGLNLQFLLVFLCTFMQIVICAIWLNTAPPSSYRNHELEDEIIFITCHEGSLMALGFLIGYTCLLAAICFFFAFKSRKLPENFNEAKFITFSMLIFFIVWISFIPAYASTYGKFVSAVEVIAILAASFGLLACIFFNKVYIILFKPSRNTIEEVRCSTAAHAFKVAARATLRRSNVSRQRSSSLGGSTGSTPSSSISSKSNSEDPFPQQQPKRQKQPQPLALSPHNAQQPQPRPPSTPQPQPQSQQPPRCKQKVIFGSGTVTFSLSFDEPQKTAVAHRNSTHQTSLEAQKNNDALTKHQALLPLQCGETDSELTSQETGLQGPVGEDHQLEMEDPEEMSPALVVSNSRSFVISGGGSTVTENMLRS
Method: For example,. bovine parathyroid cells loaded with fura-2 are initially suspended in buffer containing 0.5 mM CaCl2. A test substance is added to the cuvette in a small volume (5-15 μl) and changes in the fluorescence signal are measured. Cumulative increases in the concentration of the test substance are made in the cuvette until some predetermined concentration is achieved or no further changes in fluorescence are noted.
Human parathyroid glands, were obtained from patients undergoing surgical removal of parathyroid tissue for primary or uremic hyperparathyroidism (uremic HPT), and were treated similarly to bovine tissue.
The cells were then pelleted, resuspended in the same buffer, but lacking the ester, and incubated a further 15 minutes at 37° C. The cells were subsequently washed twice with PCB containing 0.5 mM CaCl2 and 0.5% BSA and maintained at room temperature (about 20° C.). Immediately before use, the cells were diluted five-fold with prewarmed 0.5 mM CaCl2 -PCB to obtain a final BSA concentration of 0.1%. The concentration of cells in the cuvette used for fluorescence recording was 1-2×10^6 /ml.
The fluorescence of indicator-loaded cells was measured at 37° C. in a spectrofluorimeter (Biomedical Instrumentation Group, University of Pennsylvania, Philadelphia, Pa.) equipped with a thermostated cuvette holder and magnetic stirrer using excitation and emission wavelengths of 340 and 510 nm, respectively. […] Leakage of dye is dependent on temperature and most occurs within the first 2 minutes after warming the cells in the cuvette. Dye leakage increases only very slowly thereafter. To correct the calibration for dye leakage, cells were placed in the cuvette and stirred at 37° C. for 2-3 minutes. The cell suspension was then removed, the cells pelleted, and the supernatant returned to a clean cuvette. […] This estimate was subtracted from the apparent Fmin.

bovine parathyroid cells = assay: PTH secretion from bovine parathyroid cells; type: cell-based
Method: PTH secretion was measured by first suspending cells in PCB containing 0.5 mM CaCl2 and 0.1% BSA.

cyclic AMP = type: cell-based, bovine
Method: Cells were incubated as above for PTH secretion studies and at the end of the incubation, a 0.15-ml sample was taken and transferred to 0.85 ml of hot (70° C.) water and heated at this temperature for 5-10 minutes. The tubes were subsequently frozen and thawed several times and the cellular debris sedimented by centrifugation. Portions of the supernatant were acetylated and cyclic AMP concentrations determined by radioimmunoassay.
Each value is the mean±SEM of three experiments.

inositol phosphates = assay: inositol phosphate formation in parathyroid cells; type: cell-based, bovine; details: 30 seconds
Method: After 30 seconds, the reaction was terminated by the addition of CHCl3 :MeOH:HCl and IP1 (circles) and IP3 (triangles) separated by anion exchange chromatography. Each point is the mean of 2 experiments, each performed in triplicate.
This section describes procedures measuring inositol phosphate formation. Membrane phospholipids were labeled by incubating parathyroid cells with 4 μCi/ml ^3 H-myo-inositol for 20-24 hours. Cells were then washed and resuspended in PCB containing 0.5 mM CaCl2 and 0.1% BSA. Incubations were performed in microfuge tubes in the absence or presence of various concentrations of organic polycation for different times. Reactions were terminated by the addition of 1 ml chloroform-methanol-12 N HCl (200:100:1; v/v/v). Aqueous phytic acid hydrolysate (200 μl; 25 μg phosphate/tube). The tubes were centrifuged and 600 μl of the aqueous phase was diluted into 10 ml water.
Inositol phosphates were separated by ion-exchange chromatography using AG1-X8 in either the chloride- or formate-form. When only IP3 levels were to be determined, the chloride-form was used, whereas the formate form was used to resolve the major inositol phosphates (IP3, IP2, and IP1). […] The last eluate was diluted and counted. […] The eluted samples from the formate columns were rotary evaporated, the residues brought up in cocktail, and counted.

[2] = tested on: parathyroid calcium receptors; assay: response of calcium receptor-transfected HEK293, CHO and JEG-3 cells; type: cell-based
Method: Functional calcium receptor expression was assessed by loading cells with fura-2 and measuring changes in intracellular calcium levels after addition of calcium receptor agonists. Control constructs were prepared by cloning the substance K receptor and the M1 muscarinic receptor cDNAs into similar commercial vectors as described above. Control constructs were transfected into the various cell lines described above, and the response of the cells containing the control constructs to substance K or to carbachol, respectively, was measured. […] Neither control responded to increases in extracellular calcium.

serum ionized calcium = assay: serum ionized Ca2+ in rats; type: in vivo, rat; details: NPS 467 i.p., low calcium diet
Method: (§1) Compounds shown to activate the bovine parathyroid cell calcium receptor in vitro were tested for hypocalcemic activity in vivo. Male Sprague-Dawley rats (200 g) were maintained on a low calcium diet for one week prior to receiving test substance or vehicle as control. Blood was collected from the tail vein three hours after the intra-peritoneal administration of NPS 467. […] Serum total calcium, albumin and phosphate were measured by techniques well known in the art.
Rats (male, Sprague-Dawley, 250-300 g) were fed standard rat chow and fasted overnight prior to the experiment. NPS R-467 was suspended in corn oil and administered as a single oral dose through a gavage needle. Three hours later a sample of blood was taken from the tail vein and assessed for ionized Ca^2+ levels.

PTH = PTH levels in rats; type: in vivo, rat; details: NPS 467, preliminary studies
Text: The fall in blood Ca^2+ at this time was paralleled by a proportional fall in the levels of blood total calcium.

[3] = tested on: serum albumin or phosphate; assay: serum albumin and phosphate in rats; type: in vivo, rat; details: i.p.
Method: as §1

For protamine, the “effect on [Ca2+]i” value [1] was “evoked rapid and transient increases in [Ca^2+ ]i”, the “effect on intracellular Ca2+” value ([1]; neomycin B 30 μM, protamine 1 μg/ml) was “mobilization of intracellular Ca^2+” and the “effect on PTH secretion” value (bovine parathyroid cells; bovine parathyroid cells) was “inhibit PTH secretion; also recorded: inhibited PTH secretion to the same extent as extracellular Ca^2+”. The “effect on isoproterenol-induced increases in cyclic AMP” value (cyclic AMP) was “depressed isoproterenol-induced increases in cyclic AMP” and the “effect on inositol phosphate formation” value (inositol phosphates) was “increases the formation of inositol phosphates; also recorded: rapid (within 30 seconds) increase in the formation of IP3”.
“substance K: ligand of substance K receptor (HKTDSFVGLM; ends and bridges not checked; UniProt P20366 98-107, looked up)” was tested, and the “response of calcium receptor-transfected cells” value [2] was “did not respond”.
For `CCCCCCCCCCCCCC(=O)O[C@@H]1[C@@H](C)[C@@]2(O)[C@@H](C=C(CO)C[C@]3(O)C(=O)C(C)=C[C@@H]23)[C@@H]2C(C)(C)[C@]12OC(C)=O` [PMA, phorbol myristate acetate], the “effect on concentration-response curves for increases in [Ca2+]i” value ([1]; 100 nM) was “shift to the right in the concentration-response curve; also recorded: shifts to the right the concentration-response curves”, the “effect on concentration-response curves for inhibition of PTH secretion” value (bovine parathyroid cells; 100 nM, 30 minutes) was “shifts to the right the concentration-response curves” and the “effect on inositol phosphate formation” value (inositol phosphates) was “depresses the formation of IP1”.
In the case of `C[N+](C)(C)CCOC(N)=O` [carbachol], the “response of calcium receptor-transfected cells” value [2] is reported as “did not respond”.
For `COc1cccc(C(C)NCCCc2ccccc2)c1` (racemic) [NPS 467], the “effect on serum or whole blood Ca2+” value (serum ionized calcium) was “maximal within three hours”, the “effect on serum or whole blood Ca2+” value (serum ionized calcium; listed as NPS-467) was “dose-dependent reduction in serum or whole blood Ca^2+” and the “effect on circulating PTH” value (PTH) was “dose-dependent reduction in circulating levels of PTH”. For the same compound, the “effect on serum albumin or phosphate” value [3] was “no change in serum albumin or phosphate levels”.
